Measured values from article PMC10215804, “Exploring Alternative Pathways to Target Bacterial Type II Topoisomerases Using NBTI Antibacterials: Beyond Halogen-Bonding Interactions” (Antibiotics, 2023).
Values after ≈ are worked out from the molar mass of the structure shown. Where two headings read alike, the source gives them in different places.

Assays:
E. faecalis RDK 057 [1] = conditions: cited from earlier work
S. aureus DNA gyrase [2] = target: T1, S. aureus DNA gyrase (Staphylococcus aureus, UniProt P20831); conditions: supercoiling inhibition; cited from earlier work
T1 construct: purchased Inspiralis (Norwich, UK)
T1 sequence (P20831 whole entry): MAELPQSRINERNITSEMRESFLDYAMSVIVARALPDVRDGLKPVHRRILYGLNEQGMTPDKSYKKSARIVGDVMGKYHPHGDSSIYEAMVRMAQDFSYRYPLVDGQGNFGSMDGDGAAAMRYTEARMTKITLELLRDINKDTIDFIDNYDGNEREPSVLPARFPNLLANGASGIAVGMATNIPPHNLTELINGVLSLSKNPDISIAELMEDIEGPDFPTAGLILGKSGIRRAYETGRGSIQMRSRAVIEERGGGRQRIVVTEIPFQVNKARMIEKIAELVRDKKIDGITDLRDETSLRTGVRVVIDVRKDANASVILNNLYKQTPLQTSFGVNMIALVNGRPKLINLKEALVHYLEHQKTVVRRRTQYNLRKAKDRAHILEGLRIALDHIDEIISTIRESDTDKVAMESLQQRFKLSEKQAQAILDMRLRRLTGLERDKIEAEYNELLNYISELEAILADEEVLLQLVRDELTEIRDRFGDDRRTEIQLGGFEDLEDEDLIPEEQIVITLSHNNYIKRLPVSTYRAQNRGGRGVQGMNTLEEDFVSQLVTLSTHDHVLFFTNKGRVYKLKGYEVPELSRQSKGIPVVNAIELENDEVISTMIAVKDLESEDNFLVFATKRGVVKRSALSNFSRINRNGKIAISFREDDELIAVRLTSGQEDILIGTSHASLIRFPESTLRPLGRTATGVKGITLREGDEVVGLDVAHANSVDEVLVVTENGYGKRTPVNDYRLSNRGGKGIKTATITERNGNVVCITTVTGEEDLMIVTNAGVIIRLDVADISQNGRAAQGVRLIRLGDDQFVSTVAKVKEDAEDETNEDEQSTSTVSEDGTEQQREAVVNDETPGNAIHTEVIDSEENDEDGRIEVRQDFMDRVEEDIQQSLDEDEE
T1 sequence (P0A0K8 whole entry partner): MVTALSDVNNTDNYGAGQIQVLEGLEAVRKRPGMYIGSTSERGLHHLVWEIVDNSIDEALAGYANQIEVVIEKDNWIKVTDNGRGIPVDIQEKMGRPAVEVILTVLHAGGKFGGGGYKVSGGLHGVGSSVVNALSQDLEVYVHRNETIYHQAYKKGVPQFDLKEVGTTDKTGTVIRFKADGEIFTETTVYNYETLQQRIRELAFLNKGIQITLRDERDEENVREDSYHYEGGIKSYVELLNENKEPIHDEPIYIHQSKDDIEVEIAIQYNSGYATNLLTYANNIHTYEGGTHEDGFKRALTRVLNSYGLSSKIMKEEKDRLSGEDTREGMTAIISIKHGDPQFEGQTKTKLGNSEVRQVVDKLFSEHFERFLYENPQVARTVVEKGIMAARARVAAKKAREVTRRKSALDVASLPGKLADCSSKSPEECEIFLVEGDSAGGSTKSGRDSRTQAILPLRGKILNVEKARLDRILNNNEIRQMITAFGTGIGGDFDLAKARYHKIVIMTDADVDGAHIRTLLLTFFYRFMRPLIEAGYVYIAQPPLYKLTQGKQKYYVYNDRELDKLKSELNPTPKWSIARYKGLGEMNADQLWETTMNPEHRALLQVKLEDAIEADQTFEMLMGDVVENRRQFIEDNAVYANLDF

E. coli D22 [3] = conditions: lpxC mutation; cited from earlier work
VRE [4] = conditions: cited from earlier work
S. aureus (ATCC 29213) [5] = conditions: cited from earlier work
E. coli (ATCC 25922) [6] = conditions: cited from earlier work
MRSA (QA-11.7) [7] = conditions: cited from earlier work
human topoisomerase IIα [8] = target: T2, human topoisomerase IIα (Homo sapiens, UniProt P11388); conditions: residual activity at 100 µM compound; cited from earlier work
T2 construct: purchased Inspiralis (Norwich, UK)
T2 sequence (P11388 whole entry): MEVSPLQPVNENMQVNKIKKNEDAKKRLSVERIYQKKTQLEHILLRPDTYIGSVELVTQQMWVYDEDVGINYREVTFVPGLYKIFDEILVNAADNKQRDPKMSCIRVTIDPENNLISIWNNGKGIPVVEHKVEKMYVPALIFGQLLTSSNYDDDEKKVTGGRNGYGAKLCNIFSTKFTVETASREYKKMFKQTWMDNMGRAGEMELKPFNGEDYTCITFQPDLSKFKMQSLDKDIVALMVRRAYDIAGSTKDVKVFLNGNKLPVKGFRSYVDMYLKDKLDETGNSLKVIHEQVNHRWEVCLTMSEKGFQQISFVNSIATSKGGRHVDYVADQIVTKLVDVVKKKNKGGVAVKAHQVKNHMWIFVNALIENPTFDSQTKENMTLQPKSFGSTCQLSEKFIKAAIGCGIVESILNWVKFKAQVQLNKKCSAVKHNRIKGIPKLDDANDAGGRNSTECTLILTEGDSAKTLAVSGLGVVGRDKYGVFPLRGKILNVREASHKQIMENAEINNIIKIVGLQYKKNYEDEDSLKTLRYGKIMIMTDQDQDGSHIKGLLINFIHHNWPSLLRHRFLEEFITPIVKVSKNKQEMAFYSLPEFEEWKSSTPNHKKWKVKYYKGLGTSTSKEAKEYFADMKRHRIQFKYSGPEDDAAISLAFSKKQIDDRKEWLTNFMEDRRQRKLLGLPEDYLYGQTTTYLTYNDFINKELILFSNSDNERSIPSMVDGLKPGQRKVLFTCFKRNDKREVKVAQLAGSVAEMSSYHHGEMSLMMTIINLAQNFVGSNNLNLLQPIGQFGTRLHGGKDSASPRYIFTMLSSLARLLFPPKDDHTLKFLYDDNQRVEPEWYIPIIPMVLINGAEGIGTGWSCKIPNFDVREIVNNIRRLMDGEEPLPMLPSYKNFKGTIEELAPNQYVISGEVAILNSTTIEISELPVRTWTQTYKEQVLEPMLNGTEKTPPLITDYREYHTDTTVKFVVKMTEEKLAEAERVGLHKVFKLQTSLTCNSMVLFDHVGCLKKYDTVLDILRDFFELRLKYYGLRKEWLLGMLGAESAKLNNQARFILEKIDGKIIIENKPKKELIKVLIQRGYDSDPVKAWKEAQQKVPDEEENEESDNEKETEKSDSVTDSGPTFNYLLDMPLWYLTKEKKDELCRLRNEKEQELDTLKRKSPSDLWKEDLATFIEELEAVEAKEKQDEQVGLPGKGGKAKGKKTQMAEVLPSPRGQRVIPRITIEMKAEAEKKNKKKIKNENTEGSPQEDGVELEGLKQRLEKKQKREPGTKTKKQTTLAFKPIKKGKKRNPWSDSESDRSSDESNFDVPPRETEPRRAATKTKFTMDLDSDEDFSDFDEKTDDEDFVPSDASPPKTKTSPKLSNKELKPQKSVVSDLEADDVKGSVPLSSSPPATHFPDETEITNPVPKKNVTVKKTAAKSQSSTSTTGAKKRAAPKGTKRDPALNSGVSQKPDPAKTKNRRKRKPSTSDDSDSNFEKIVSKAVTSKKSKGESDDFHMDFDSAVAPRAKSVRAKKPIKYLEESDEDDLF

P. aeruginosa RDK 184 [9] = conditions: cited from earlier work
E. coli N43 (CGSC# 5583) [10] = conditions: AcrA knockout; cited from earlier work
[11] = Metabolic activity assessment (cytotoxicity), CellTiter 96 Aqueous One; format: cell-based; conditions: human, HepG2 cells (ATCC HB-8065); 72 h treatment; means of three independent measurements ± SD
Protocol: HUVEC (ATCC® CRL-1730™) and HepG2 (ATCC® HB-8065™) cell lines were cultured in Dulbecco’s Modified Eagle Medium (DMEM; Sigma-Aldrich, St. Louis, MO, USA) supplemented with 10% heat-deactivated FBS (Gibco, Grand Island, NE, USA), 2 mM L-glutamine, 100 U/mL penicillin, 100 μg/mL streptomycin (all from Sigma-Aldrich, St. Louis, MO, USA) in a humidified chamber at 37 °C and 5% CO2. The experiments were carried out on passages 4–7 for both cell lines. The tested compounds were dissolved in DMSO and further diluted in culture medium to a desired final concentration. The cells were then seeded into 96-well plates at 5 × 10^4 cells/mL (100 μL/well) or 8 × 10^4 cells/mL (100 μL/well) for HUVEC and HepG2, respectively. The cells were then incubated for 24 h to allow attachment onto the wells. The cells were treated with 1 μM and 50 μM of each compound of interest, or the corresponding vehicle as control. […] Their metabolic activity was assessed after 72 h treatment using a CellTiter 96 Aqueous One Solution Cell Proliferation Assay (Promega, Madison, WI, USA), in accordance with the manufacturer’s instructions. The absorbance was measured at 492 nm on an automated microplate reader, Tecan Spark (Tecan Group Ltd., Männedorf, CH, Switzerland). Data are presented as the percentage of metabolic activity of control cells stimulated with vehicle, or as an IC50 value (mean ± SD) from three independent experiments, each conducted in triplicate (for screening) or duplicate (for IC50 determination). IC50 values were calculated using a non-linear regression model and with Graph Pad Prism 9 software.

E. coli DNA gyrase = target: T3, E. coli DNA gyrase (Escherichia coli, UniProt P0AES4); assay: DNA gyrase supercoiling inhibition assay (high-throughput plate assay); format: biochemical
T3 construct: purchased Inspiralis (Norwich, UK)
Protocol: (§1) To determine the IC50 values of the compounds for S. aureus and E. coli, a DNA gyrase supercoiling high-throughput plate assay and a topoIV relaxation high-throughput plate assay were performed. Assay kits and black streptavidin-coated 96-well microtiter plates are available from Inspiralis (Norwich, UK). For pre-screening, an inhibitor concentration of 100 μM was used. […] A nonlinear regression-based fit of the inhibition curves was used, with the log [inhibitor] versus slope of the reaction variables (four parameters) and a symmetric equation. […] To determine IC50 values, two independent repetitions were performed and the average was calculated.

human topoisomerase IIα [12] = target: T2, human topoisomerase IIα; assay: human topoisomerase II alpha relaxation high-throughput assay (selectivity); format: biochemical; conditions: residual activity at 100 µM compound; mean ± SD, two independent experiments; read-out: Human TopoIIα (% RA at 100 µM)
Protocol: For selectivity determination, a human topoisomerase II alpha relaxation high-throughput assay was used. The assay kits and black streptavidin-coated 96-well microtiter plates are available from Inspiralis (Norwich, UK). Two independent measurements were performed with an inhibitory concentration of 100 µM. Raw data were calculated as the mean ± SD percentage of the residual enzyme activity.

S. aureus DNA gyrase [13] = target: T1, S. aureus DNA gyrase; assay: biochemical; conditions: supercoiling inhibition; mean of two independent measurements ± SD
Protocol: as §1

S. aureus topoIV = target: T4, S. aureus topoIV (Staphylococcus aureus, UniProt P0C1U9); assay: biochemical; conditions: relaxation inhibition; mean of two independent measurements ± SD
T4 construct: purchased Inspiralis (Norwich, UK)
T4 sequence (P0C1U9 whole entry): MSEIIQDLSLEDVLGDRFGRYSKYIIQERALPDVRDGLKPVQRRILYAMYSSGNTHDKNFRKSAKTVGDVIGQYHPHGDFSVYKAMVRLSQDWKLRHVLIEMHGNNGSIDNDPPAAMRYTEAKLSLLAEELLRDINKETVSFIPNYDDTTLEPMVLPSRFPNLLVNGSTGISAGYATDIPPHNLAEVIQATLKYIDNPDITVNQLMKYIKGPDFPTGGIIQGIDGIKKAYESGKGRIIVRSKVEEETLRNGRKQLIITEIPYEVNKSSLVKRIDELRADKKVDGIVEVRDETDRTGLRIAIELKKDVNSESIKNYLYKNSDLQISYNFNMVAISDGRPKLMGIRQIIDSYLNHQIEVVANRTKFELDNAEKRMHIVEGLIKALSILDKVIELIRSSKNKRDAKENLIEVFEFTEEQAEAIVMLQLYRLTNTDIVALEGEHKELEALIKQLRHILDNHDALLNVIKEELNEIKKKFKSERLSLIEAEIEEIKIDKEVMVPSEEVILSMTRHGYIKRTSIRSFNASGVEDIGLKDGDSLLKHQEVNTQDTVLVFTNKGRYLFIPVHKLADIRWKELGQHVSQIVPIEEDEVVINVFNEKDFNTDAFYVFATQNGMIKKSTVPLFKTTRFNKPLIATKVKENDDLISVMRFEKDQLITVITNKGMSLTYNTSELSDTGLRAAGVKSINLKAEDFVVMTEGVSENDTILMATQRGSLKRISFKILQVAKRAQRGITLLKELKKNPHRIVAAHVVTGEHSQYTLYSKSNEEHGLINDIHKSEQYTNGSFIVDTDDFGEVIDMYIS
T4 sequence (P0C1S7 whole entry partner): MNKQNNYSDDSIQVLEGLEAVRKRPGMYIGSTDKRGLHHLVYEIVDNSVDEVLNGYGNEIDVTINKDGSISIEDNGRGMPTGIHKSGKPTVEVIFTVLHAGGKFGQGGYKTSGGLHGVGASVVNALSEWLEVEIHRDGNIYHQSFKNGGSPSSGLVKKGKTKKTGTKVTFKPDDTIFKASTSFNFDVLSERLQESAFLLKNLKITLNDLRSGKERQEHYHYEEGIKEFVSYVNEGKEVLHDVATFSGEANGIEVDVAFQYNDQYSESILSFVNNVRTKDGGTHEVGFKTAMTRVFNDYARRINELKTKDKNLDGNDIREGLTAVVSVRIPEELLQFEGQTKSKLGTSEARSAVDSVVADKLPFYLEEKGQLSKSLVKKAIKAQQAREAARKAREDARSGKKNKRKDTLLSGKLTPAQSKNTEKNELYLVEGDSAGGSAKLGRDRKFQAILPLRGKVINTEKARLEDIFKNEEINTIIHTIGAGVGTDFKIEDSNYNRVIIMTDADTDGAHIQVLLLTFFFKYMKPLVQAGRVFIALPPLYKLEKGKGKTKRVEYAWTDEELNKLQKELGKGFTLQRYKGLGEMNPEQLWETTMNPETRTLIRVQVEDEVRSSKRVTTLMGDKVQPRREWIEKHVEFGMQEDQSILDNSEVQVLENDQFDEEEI
Protocol: as §1

MRSA (QA-11.2) = assay: MIC, broth microdilution; format: cell-based, S. aureus; conditions: Staphylococcus aureus
Protocol: (§2) For the determination of minimum inhibitory concentrations (MIC), the broth microdilution method was used in 96-well plate format, according to the guidelines of the Clinical and Laboratory Standards Institute and the recommendations of the European Committee on Antimicrobial Susceptibility Testing (EUCAST). The dilutions of the bacterial suspension of the specific bacterial strain, corresponding to the 0.5 McFarland turbidity standard, were prepared with […] Mueller–Hinton broth with TES (Thermo Fisher Scientific) to obtain an end inoculum of 10^5 CFU/mL. The compounds were dissolved in DMSO and mixed with the inoculum. […] The MIC was determined as the lowest concentration of antibiotic that prevented visible bacterial growth. Tetracycline was used as a positive control on each test plate.

MRSA (QA-11.7) [14] = assay: MIC, broth microdilution; format: cell-based, S. aureus; conditions: Staphylococcus aureus
Protocol: as §2

MRSA(QA-12.1) = assay: MIC, broth microdilution; format: cell-based, S. aureus; conditions: Staphylococcus aureus
Protocol: as §2

E. coli topoIV = target: T5, E. coli topoIV (Escherichia coli, UniProt P0AFI2); assay: topoIV relaxation inhibition assay (high-throughput plate assay); format: biochemical
T5 construct: purchased Inspiralis (Norwich, UK)
Protocol: as §1

E. coli (ATCC 25922) [15] = assay: MIC, broth microdilution; format: cell-based; conditions: Escherichia coli, ATCC25922
Protocol: as §2

E. coli N43 (CGSC# 5583) [16] = assay: MIC, broth microdilution; format: cell-based; conditions: Escherichia coli
Protocol: as §2

E. coli ESBL QA-11.3 = assay: MIC, broth microdilution; format: cell-based; conditions: Escherichia coli, ESBLQA11.3
Protocol: as §2

K. pneumoniae = assay: MIC, broth microdilution; format: cell-based; conditions: Klebsiella pneumoniae
Protocol: as §2

P. aeruginosa RDK 184 [17] = assay: MIC, broth microdilution; format: cell-based; conditions: Pseudomonas aeruginosa
Protocol: as §2

VRE [18] = assay: MIC, broth microdilution; format: cell-based; conditions: Enterococcus
Protocol: as §2

E. faecalis RDK 057 [19] = assay: MIC, broth microdilution; format: cell-based; conditions: Enterococcus faecalis, RDK057
Protocol: as §2

S. aureus (ATCC 29213) [20] = assay: MIC, broth microdilution; format: cell-based; conditions: Staphylococcus aureus, ATCC29213
Protocol: as §2

E. coli D22 [21] = assay: MIC, broth microdilution; format: cell-based; conditions: Escherichia coli, D22
Protocol: as §2

A. baumannii = assay: MIC, broth microdilution; format: cell-based; conditions: Acinetobacter baumannii
Protocol: as §2

COc1ccc2nccc(CCN3CCC(NCc4ccc(Br)cc4)CC3)c2n1 [Compound 1]
MIC E. faecalis RDK 057 (E. faecalis RDK 057 [1]): 0.5 µg/mL (≈ 1.1 µM)
IC50 (S. aureus DNA gyrase [2]): 26 ± 10 nM
MIC E. coli D22 (E. coli D22 [3]): 0.125 µg/mL (≈ 0.274 µM)
MIC VRE (VRE [4]): 2 µg/mL (≈ 4.39 µM)
MIC S. aureus (ATCC 29213) (S. aureus (ATCC 29213) [5]): 0.125 µg/mL (≈ 0.274 µM)
MIC E. coli (ATCC 25922) (E. coli (ATCC 25922) [6]): 2 µg/mL (≈ 4.39 µM)
MIC MRSA (QA-11.7) (MRSA (QA-11.7) [7]): 0.5 µg/mL (≈ 1.1 µM)
Human TopoIIα (% RA at 100 µM) (human topoisomerase IIα [8]): 98 ± 3%
MIC P. aeruginosa RDK 184 (P. aeruginosa RDK 184 [9]): 128 µg/mL (≈ 281 µM)
MIC E. coli N43 (CGSC# 5583) (E. coli N43 (CGSC# 5583) [10]): 0.125 µg/mL (≈ 0.274 µM)

COc1ccc2nccc(CCN3CCC(NCc4ccc(Br)c(C(F)(F)F)c4)CC3)c2n1 [Compound 12, N-(4-Bromo-3-(trifluoromethyl)benzyl)-1-(2-(6-methoxy-1,5-naphthyridin-4-yl)ethyl)piperidin-4-amine]
IC50 at 72 h [11]: 12 ± 1.86 µM
IC50 (E. coli DNA gyrase): 84 ± 20 nM
remaining activity at 100 µM (human topoisomerase IIα [12]): 102%
IC50 (S. aureus DNA gyrase [13]): 62 nM
IC50 (S. aureus topoIV): 345 ± 25 nM
MIC (MRSA (QA-11.2); read-out: MIC (μM) MRSA (QA-11.2)): 0.161 µM
MIC (MRSA (QA-11.2); read-out: MIC MRSA (QA-11.2)): 0.063 µg/mL
MIC (MRSA (QA-11.7) [14]; read-out: MIC (μM) MRSA (QA-11.7)): 0.161 µM
MIC (MRSA (QA-11.7) [14]; strain resistant to cefoxitin, ciprofloxacin, clindamycin, erythromycin, tetracycline, thiamulin, trimethoprim, read-out: MIC MRSA (QA-11.7)): 0.063 µg/mL
MIC (MRSA(QA-12.1); Table S3, read-out: MIC (μM) MRSA(QA-12.1)): 0.082 µM
MIC (MRSA(QA-12.1); strain resistant to cefoxitin, gentamicin, kanamycin, rifampicin, streptomycin, sulfamethoxazole, tetracycline, read-out: MIC MRSA(QA-12.1)): 0.032 µg/mL
IC50 (E. coli topoIV): 23 ± 6 nM
MIC (E. coli (ATCC 25922) [15]; Table S3, read-out: MIC (μM) E. coli (ATCC 25922)): 10.2 µM
MIC (E. coli (ATCC 25922) [15]; read-out: MIC E. coli (ATCC 25922)): 4 µg/mL
MIC (E. coli N43 (CGSC# 5583) [16]; read-out: MIC (μM) E. coli N43): 0.161 µM
MIC (E. coli N43 (CGSC# 5583) [16]; read-out: MIC E. coli N43 (CGSC# 5583)): 0.063 µg/mL
MIC (E. coli ESBL QA-11.3; Table S3, read-out: MIC (μM) E. coli ESBL QA:11.3): 10.2 µM
MIC (E. coli ESBL QA-11.3; read-out: MIC E. coli ESBL QA-11.3): 4 µg/mL
MIC (K. pneumoniae; Table S3, read-out: MIC (μM) K. pneumoniae): 41 µM
MIC (K. pneumoniae; read-out: MIC K. pneumoniae): 16 µg/mL
MIC (P. aeruginosa RDK 184 [17]; RDK184, 20 h, Table S3, read-out: MIC (μM) P. aeruginosa RDK 184): > 328 µM
MIC (P. aeruginosa RDK 184 [17]; RDK184, read-out: MIC P. aeruginosa RDK 184): > 128 µg/mL
MIC (VRE [18]; Table S3, read-out: MIC (μM) VRE): 0.64 µM
MIC (VRE [18]; read-out: MIC VRE): 0.25 µg/mL
MIC (E. faecalis RDK 057 [19]; Table S3, read-out: MIC (μM) E. faecalis DRK 057): 1.28 µM
MIC (E. faecalis RDK 057 [19]; read-out: MIC E. faecalis RDK 057): 0.5 µg/mL
MIC (S. aureus (ATCC 29213) [20]; Table S3, read-out: MIC (μM) S. aureus (ATCC 29213)): 0.082 µM
MIC (S. aureus (ATCC 29213) [20]; read-out: MIC S. aureus (ATCC 29213)): 0.032 µg/mL
MIC (E. coli D22 [21]; Table S3, lpxC mutation, read-out: MIC (μM) E. coli D22): 0.64 µM
MIC (E. coli D22 [21]; lpxC mutation that increases membrane permeability, read-out: MIC E. coli D22): 0.25 µg/mL
MIC (A. baumannii; Table S3, read-out: MIC (μM) A. baumannii): 5.12 µM
MIC (A. baumannii; read-out: MIC A. baumannii): 2 µg/mL
